Here are results for 1 compound from paper PMC3703888, “Integration of Different “-omics” Technologies Identifies Inhibition of the IGF1R-Akt-mTOR Signaling Cascade Involved in the Cytotoxic Effect of Shikonin against Leukemia Cells” (Evidence-based Complementary and Alternative Medicine : eCAM, 2013).

One assay deals with U937 cells. Description: Stable-isotope dimethyl labeling quantitative proteomics. The class given is cell-based. As to conditions: 0.3 μM shikonin (IC50), 24 h vs DMSO. The protocol: To examine quantitative changes in the proteome of U937 leukemia cells after shikonin treatment, the dimethyl labeling proteomics analysis was performed. Briefly, 5 × 10^6 U937 cells were seeded in 10 mL RPMI 1640 medium in a 25 cm^2 culture flask. Subsequently, cells were treated with 0.3 μM shikonin (IC50) or DMSO as solvent control for 24 h. After incubation cells were washed with PBS and protein extraction was performed using the M-PER Mammalian Protein Extraction Reagent (Thermo Scientific, Germany) containing a protease inhibitor cocktail (Roche, Germany), cells were incubated with the extraction reagent for 40 min at 4°C. After incubation, cellular debris was removed by centrifugation at 14000 ×g for 15 min. Supernatants were transferred into new tubes and an acetone precipitation of the proteins was performed. After precipitation, the acetone was removed and the protein pellet in each of the tube was further diluted to 1 μg/μL with 50 mM TEABC and reduced with 5 mM TCEP for 1 h at 37°C, followed by alkylation using 2 mM MMTS for 45 min at room temperature. For the proteolytic digestion, the modified tube-gel digestion protocol was applied and the detergent residue was checked using the method described previously. Two 200 μg proteolytic protein mixtures from DMSO and shikonin treated cells were first dissolved in 200 μL of 100 mM TEABC (pH 8.5) and, respectively, mixed with 20 μL of formaldehyde and formaldehyde-13C, d2 (4%, diluted with H2O). After vortexing (5 min) and centrifugation, each of the sample solutions was mixed with 20 μL of 600 mM sodium cyanoborohydride solution. The sample solutions were vortexed (10 min) and centrifuged again and then allowed to react for 30 min at 25°C. To quench the reaction, ammonium hydroxide (7% in water, 10 μL) was added to each sample solution. Finally, 16 μL of formic acid was added to acidify each of the sample solutions and two samples were further combined for strong cation exchange (SCX) fractionation.
For SCX fractionation, the buffer SCX-A (5 mM KH2PO4 in 25% ACN at pH 3) and SCX-B (5 mM KH2PO4 and 350 mM KCl in 25% ACN at pH 3) were used as the mobile phase. The peptide mixtures were reconstituted in buffer SCX-A and then loaded into a PolySULFOETHYL A column (200 × 2.1 mm, 5 μm, 300Å, PolyLC, Columbia, MD) for 10 min at the flow rate of 0.2 mL/min. Peptides were fractionated using a 75 min gradient from 0 to 100% of buffer SCX-B. Fractions were collected every three minutes from the retention time of 10 to 55 min using a fraction collector (BioFrac Fraction Collector, BioRad Laboratories, Hercules, CA). The peptide mixtures in each of the fraction were further analyzed by the LC-MS/MS.
LC-MS/MS analysis was performed with a nanoUHPLC system (nanoACQUITY UPLC, Waters, Millford, MA) coupled online to the nanoelectrospray source of a hybrid quadrupole time-of-flight mass spectrometer (Q-TOF-MS) (SYNAPT HDMS G2, Waters, Manchester, UK). For LC-MS/MS analysis, water with 0.1% FA and ACN with 0.1% FA were used as the mobile phase. The sample was injected into a trap column (Symmetry C18, 5 μm, 180 μm × 20 mm, Waters, Milford, MA) and separated online with a reverse phase column (BEH C18, 1.7 μm, 75 μm × 250 mm, Waters, Milford, MA) at the flow rate of 300 nL/min using either a 95 min gradient with 5–90% ACN/water ratio. The mass spectrometry instruments were all operated in the positive ion mode, and data-dependent acquisition methods were applied for all experiments. The acquisition settings were set to one full MS scan (350–1600 m/z) with a scan time of 1 second and switched to six product ion scans (50–1900 m/z) with 0.4 second scan time when a precursor ion charge was 2+, 3+, or 4+, and the intensity was higher than 200 counts. The data files generated from LC-MS/MS were processed by UniQua and further analyzed by the MASCOT and Trans Proteomics Pipeline (TPP) 1 version 4.4 rev. 1, and the details and criteria of data processing were described previously.

For the next assay, the target named is T1, IGF1R (Homo sapiens, UniProt P08069).
T1 construct: purchased ProQinase GmbH (Freiburg, Germany)
Description: Radiometric protein kinase assay (33PanQinase Activity Assay). The following applies: purified IGF1R kinase, nonlinear regression. The class given is biochemical. The protocol: The kinase inhibition assay was performed by ProQinase GmbH (Freiburg, Germany). Shikonin was provided as 1.85 × 10^−3 M stock solution in DMSO. In the process, shikonin was serially diluted in semi-log steps with 100% DMSO in a 96-well microtiter plate. Directly before use, shikonin was further diluted 1 : 10 with water. Shikonin was tested at 10 final assay concentrations in the range from 1.85 × 10^−5 M to 5.55 × 10^−10 M. The final DMSO concentration in the reaction cocktails was 1% in all cases. A radiometric protein kinase assay (^33PanQinase Activity Assay) was used for measuring the kinase activity of IGF1R. All kinase assays were performed in 96-well FlashPlates from Perkin Elmer (Boston, MA, USA) in a 50 μL reaction volume. […] Incorporation of ^33Pi (counting of “cpm”) was determined with a Wallac MicroBeta scintillation counter (Perkin Elmer). […] Kinase activity was evaluated based on a comparison with experiments containing the complete reaction cocktail but no shikonin. A complete reaction cocktail without kinase served as control for unspecific binding of radioactivity to the plate in the absence of protein kinase but in the presence of shikonin. IC50 values were calculated by nonlinear regression using Prism 5.04 (Graphpad, CA, USA).

Another assay has as its system EGFR. More on the design: method as in PMID 14568164. The following applies: previous studies ref 24; cited from earlier work.

T1 sequence (P08069 31-1367): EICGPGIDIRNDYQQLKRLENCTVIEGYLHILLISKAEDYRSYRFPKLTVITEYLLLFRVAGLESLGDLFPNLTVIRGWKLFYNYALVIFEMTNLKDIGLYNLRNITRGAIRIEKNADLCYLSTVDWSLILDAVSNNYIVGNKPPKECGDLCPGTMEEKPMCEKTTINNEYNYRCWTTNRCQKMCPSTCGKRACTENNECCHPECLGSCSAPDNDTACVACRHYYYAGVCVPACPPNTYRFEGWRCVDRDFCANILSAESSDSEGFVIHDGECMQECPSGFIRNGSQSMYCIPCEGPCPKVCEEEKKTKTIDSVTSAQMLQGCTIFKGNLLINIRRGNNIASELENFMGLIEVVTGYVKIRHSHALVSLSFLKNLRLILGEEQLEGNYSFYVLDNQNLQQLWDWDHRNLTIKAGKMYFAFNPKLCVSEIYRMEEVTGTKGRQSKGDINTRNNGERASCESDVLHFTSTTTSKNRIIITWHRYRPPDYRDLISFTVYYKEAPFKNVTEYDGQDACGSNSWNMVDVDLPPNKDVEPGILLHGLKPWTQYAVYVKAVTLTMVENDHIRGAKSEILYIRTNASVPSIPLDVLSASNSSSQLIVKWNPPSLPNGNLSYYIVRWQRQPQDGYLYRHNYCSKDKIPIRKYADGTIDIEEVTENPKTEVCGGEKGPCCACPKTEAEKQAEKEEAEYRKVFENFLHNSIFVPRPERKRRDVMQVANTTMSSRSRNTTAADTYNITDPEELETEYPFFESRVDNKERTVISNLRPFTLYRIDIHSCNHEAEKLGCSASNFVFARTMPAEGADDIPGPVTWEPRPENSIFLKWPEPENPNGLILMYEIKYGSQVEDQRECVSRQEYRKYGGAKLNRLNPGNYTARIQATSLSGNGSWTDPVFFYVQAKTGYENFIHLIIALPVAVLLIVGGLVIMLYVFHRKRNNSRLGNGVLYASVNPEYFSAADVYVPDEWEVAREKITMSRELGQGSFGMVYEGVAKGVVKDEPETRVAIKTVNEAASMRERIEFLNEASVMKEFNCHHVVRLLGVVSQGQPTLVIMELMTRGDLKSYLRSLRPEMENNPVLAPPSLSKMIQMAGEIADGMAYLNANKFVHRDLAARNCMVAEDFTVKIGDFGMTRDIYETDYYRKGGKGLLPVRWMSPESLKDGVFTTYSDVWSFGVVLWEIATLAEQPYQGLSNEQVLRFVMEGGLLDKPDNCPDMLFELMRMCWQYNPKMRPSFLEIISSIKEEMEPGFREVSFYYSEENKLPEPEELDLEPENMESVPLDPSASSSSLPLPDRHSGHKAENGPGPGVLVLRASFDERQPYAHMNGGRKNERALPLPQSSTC

The term IC50 denotes the concentration that gives 50% inhibition. A lower IC50 goes with greater potency in that assay. `CC(C)=CC[C@@H](O)C1=CC(=O)c2c(O)ccc(O)c2C1=O` [shikonin]: in the assay with U937 cells, the “FC protein 5′-Nucleotidase domain-containing protein 2” value is given as −5.4, the “FC protein 60S ribosomal protein L24” value is on record as −7.5, the “FC protein ATP-dependent RNA helicase DDX3Y” value was −4.3 and the “FC protein Cell differentiation protein RCD1 homolog” value was “+10.0”. In the assay on U937 cells, the “FC protein Golgi phosphoprotein 3” value is listed as −3.5, the “FC protein Heme oxygenase 1” value is on record as “+14.3”, the “FC protein Heterogeneous nuclear ribonucleoprotein H2” value is recorded as −4.5 and the “FC protein Hexokinase-1” value is −20.5. Besides, in the assay on U937 cells, the “FC protein Histone H2B type 2-E” value is “+7.1”; the “FC protein Histone H4” value is on record as “+11.1”; the “FC protein LIM domain and actin-binding protein 1” value is recorded as “+6.7”; the “FC protein Leucine-rich repeat-containing protein 58” value was −3.5. Further, in the assay on U937 cells, the “FC protein Mannose-6-phosphate isomerase” value is given as “+7.7”, the “FC protein Methylosome protein 50” value is −4.0, the “FC protein Neuronal-specific septin-3” value is reported as “+6.7” and the “FC protein Rho GTPase-activating protein 4” value is on record as −3.1. In addition, in the assay with U937 cells, the “FC protein Schlafen family member 11” value was “+6.7”, the “FC protein Sorting nexin-17” value was “+9.1”, the “FC protein Vacuolar protein sorting-associated protein 11 homolog” value was −20.0 and the “FC protein WD repeat-containing protein 3” value is “+12.1”. At IGF1R, this compound came in with an IC50 of 2600 nM. Besides, the EGFR phosphorylation entry in the assay with EGFR is listed as “inhibits EGFR phosphorylation”.
